Experimental data from BindingDB's records for patent US20240208932 (Xizang Haisco Pharmaceutical, 2024).

Experiments:
Test in all cases: CYP450 Enzyme Inhibition Assay
[1] = target: T1, Cytochrome P450 1A2 (Homo sapiens, UniProt P05177)
T1 sequence (P05177 whole entry): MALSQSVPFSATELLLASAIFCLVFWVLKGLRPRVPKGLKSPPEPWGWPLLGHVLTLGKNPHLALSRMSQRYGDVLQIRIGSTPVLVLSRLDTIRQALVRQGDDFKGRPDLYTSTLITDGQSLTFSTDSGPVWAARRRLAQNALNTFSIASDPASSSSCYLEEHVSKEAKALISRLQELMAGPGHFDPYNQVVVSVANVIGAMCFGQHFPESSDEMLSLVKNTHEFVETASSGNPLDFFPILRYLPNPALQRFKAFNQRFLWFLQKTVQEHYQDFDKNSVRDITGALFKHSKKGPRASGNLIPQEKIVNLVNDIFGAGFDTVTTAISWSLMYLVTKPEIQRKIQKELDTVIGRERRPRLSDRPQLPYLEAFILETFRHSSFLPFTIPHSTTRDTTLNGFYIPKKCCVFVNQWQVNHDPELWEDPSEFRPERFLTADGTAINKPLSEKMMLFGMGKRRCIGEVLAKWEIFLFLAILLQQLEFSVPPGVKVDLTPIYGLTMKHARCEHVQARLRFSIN
Description: (§1) The purpose of this study was to evaluate the effect of the test compound on the activity of five isoenzymes (CYP1A2, CYP2C9, CYP2C19, CYP2D6 and CYP3A4) of human liver microsomal cytochrome P450 (CYP) by using an in vitro testing system. The specific probe substrates of CYP450 isoenzymes were incubated with human liver microsomes and test compounds of different concentrations, and reduced nicotinamide adenine dinucleotide phosphate (NADPH) was added to initiate the reaction. After the completion of the reaction, the sample was treated and liquid chromatography-tandem mass spectrometry (LC-MS/MS) was used to quantitatively detect metabolites produced by specific substrates, changes in CYP enzyme activity were determined, and IC50 value was calculated to evaluate the inhibitory potential of the test compound on each CYP enzyme subtype.

[2] = target: Cytochrome P450 2C19 (Homo sapiens, UniProt P33261)
Description: as §1

[3] = target: Cytochrome P450 2C9 (Homo sapiens, UniProt P11712)
Description: as §1

[4] = target: Cytochrome P450 2D6 (Homo sapiens, UniProt P10635)
Description: as §1

[5] = target: Cytochrome P450 3A4 (Homo sapiens, UniProt P08684)
Description: as §1

Sequence of Cytochrome P450 2C9 (P11712 whole entry): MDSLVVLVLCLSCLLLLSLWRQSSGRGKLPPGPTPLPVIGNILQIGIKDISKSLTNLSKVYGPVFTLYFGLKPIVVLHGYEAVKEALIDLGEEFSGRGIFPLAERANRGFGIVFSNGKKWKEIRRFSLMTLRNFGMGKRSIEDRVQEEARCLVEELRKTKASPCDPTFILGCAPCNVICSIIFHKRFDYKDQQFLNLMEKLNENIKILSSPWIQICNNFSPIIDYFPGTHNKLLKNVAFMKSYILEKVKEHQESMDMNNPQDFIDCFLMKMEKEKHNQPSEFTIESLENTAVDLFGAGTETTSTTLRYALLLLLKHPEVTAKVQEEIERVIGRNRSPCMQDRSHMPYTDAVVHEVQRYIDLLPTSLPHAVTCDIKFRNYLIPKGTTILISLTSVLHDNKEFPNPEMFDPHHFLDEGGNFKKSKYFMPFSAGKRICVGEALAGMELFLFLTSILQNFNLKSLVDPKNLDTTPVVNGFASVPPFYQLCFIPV
Sequence of Cytochrome P450 2C19 (P33261 whole entry): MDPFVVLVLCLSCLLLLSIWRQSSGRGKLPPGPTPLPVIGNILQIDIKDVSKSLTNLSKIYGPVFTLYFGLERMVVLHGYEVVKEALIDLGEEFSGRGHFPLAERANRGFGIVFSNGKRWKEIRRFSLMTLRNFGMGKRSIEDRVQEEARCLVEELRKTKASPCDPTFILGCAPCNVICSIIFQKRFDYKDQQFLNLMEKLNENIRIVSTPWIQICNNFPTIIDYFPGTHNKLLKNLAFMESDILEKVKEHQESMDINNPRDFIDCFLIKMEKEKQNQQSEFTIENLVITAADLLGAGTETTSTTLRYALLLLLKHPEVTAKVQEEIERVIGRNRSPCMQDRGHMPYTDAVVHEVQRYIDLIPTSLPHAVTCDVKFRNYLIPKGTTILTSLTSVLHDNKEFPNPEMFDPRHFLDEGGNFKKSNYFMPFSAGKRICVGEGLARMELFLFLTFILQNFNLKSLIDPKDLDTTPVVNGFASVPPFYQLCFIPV
Sequence of Cytochrome P450 2D6 (P10635 whole entry): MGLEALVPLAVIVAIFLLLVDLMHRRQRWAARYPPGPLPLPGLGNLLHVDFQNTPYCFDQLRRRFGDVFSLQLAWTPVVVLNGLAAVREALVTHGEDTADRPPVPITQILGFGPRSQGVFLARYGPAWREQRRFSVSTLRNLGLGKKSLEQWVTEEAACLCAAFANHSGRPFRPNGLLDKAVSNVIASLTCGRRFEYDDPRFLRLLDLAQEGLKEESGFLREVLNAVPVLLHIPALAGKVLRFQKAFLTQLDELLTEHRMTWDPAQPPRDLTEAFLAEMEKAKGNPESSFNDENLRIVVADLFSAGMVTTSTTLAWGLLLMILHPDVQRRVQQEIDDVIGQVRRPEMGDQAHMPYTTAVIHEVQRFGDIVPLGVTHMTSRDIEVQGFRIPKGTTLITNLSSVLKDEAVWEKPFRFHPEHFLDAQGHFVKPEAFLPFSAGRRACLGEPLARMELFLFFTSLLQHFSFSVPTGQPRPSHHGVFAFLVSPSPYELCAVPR
Sequence of Cytochrome P450 3A4 (P08684 whole entry): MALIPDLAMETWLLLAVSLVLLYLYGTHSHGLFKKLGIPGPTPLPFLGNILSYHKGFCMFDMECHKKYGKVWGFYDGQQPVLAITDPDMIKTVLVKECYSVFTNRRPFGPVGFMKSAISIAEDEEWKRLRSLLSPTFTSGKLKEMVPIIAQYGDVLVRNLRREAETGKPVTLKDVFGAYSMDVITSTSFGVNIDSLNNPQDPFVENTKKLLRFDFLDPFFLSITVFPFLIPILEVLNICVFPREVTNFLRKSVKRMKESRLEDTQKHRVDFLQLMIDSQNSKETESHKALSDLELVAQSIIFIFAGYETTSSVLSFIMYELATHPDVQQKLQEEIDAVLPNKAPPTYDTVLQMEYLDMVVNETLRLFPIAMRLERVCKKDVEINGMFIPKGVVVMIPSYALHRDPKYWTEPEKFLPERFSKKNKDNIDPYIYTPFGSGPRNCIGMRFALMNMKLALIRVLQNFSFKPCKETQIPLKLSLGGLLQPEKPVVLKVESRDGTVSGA

- IC50 [1]: 15.6 µM
- IC50 [2]: 19.1 µM
- IC50 [3]: 15.6 µM
- IC50 [4]: 13.8 µM
- IC50 [5]: 12.8 µM
SMILES: C[C@@H]1Cc2c([nH]c3ccccc23)[C@H](c2c(F)cc(N[C@H]3CCN(CCCF)C3)cc2F)N1CC(F)(F)F [WO2021228210, Compound 4]
